The values below come from PubChem BioAssay AID1918938 (Molecular Pharmacology Branch, DTP, NCI, 2023).

Values joined by “and” are separate entries in the source; they are usually repeats but may differ in a detail not shown here. Equal values may be shown once. Some results are limits rather than exact numbers.

The subject of the experiment is 556581-035-R-J1-PDC complex spheroid viability. Nature of the experiment: Anticancer human tumor 556581-035-R-J1-PDC patient-derived ovarian carcinoma cell line growth inhibition. The following applies: for viability, T/C: stronger effect = lower value. Summed up: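 Multicellular complex spheroids of tumor cells with human endothelial cells (HUVEC) and mesenchymal stem cells; the LSD1 inhibitor iadademstat was combined with standard-of-care or investigational agents. Top concentration at or near clinical Cmax, half-log dilutions; final DMSO ≤0.25%.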

Where [1] appears, read: curve of first compound, second compound 0.1 µM.
The mark [2] stands for this setting: curve of first compound, second compound 0.316 µM.
The mark [3] stands for this setting: curve of first compound, second compound 1 µM.
Setting [4] is: curve of first compound, second compound 3.16 µM.
Setting [5] is: curve of first compound, second compound 10 µM.
[6] abbreviates: second compound 0.1 µM, first compound 0.00316 µM.
Where [7] appears, read: second compound 0.1 µM, first compound 0.01 µM.
The mark [8] stands for this setting: second compound 0.1 µM, first compound 0.0316 µM.
The mark [9] stands for this setting: second compound 0.1 µM, first compound 0.1 µM.
[10] abbreviates: second compound 0.316 µM, first compound 0.00316 µM.
The mark [11] stands for this setting: second compound 0.316 µM, first compound 0.01 µM.
The mark [12] stands for this setting: second compound 0.316 µM, first compound 0.0316 µM.
Where [13] appears, read: second compound 0.316 µM, first compound 0.1 µM.
The mark [14] stands for this setting: second compound 1 µM, first compound 0.00316 µM.
The mark [15] stands for this setting: second compound 1 µM, first compound 0.01 µM.
Setting [16] is: second compound 1 µM, first compound 0.0316 µM.
The mark [17] stands for this setting: second compound 1 µM, first compound 0.1 µM.
Where [18] appears, read: second compound 3.16 µM, first compound 0.00316 µM.
Where [19] appears, read: second compound 3.16 µM, first compound 0.01 µM.
Setting [20] is: second compound 3.16 µM, first compound 0.0316 µM.
Where [21] appears, read: second compound 3.16 µM, first compound 0.1 µM.
The mark [22] stands for this setting: second compound 10 µM, first compound 0.00316 µM.
Where [23] appears, read: second compound 10 µM, first compound 0.01 µM.
Where [24] appears, read: second compound 10 µM, first compound 0.0316 µM.
[25] abbreviates: second compound 10 µM, first compound 0.1 µM.
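Also: spheroids exposed to agents for seven days.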
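For viability, T/C in this document: 100% = DMSO vehicle control wells.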

Take `CCc1c2c(nc3ccc(O)cc13)-c1cc3c(c(=O)n1C2)COC(=O)[C@]3(O)CC` + NC1CCC(NC2CC2c2ccccc2)CC1: the IC50 – broadly, the concentration that inhibits the measured activity by half – reads like this: under setting [1], less than 0.949 nM; under setting [2], less than 0.949 nM; under setting [3], less than 0.949 nM; under setting [4], less than 0.949 nM; under setting [5], less than 0.949 nM. The viability, T/C – broadly, the ratio of treated to control – (second compound 0.1 µM, first compound 0.000949 µM) is 20.5%; the viability, T/C (second compound 0.1 µM, first compound 0.003 µM) was 10.8%; the viability, T/C (second compound 0.1 µM, first compound 0.00949 µM) is 2.17%; the viability, T/C (second compound 0.1 µM, first compound 0.03 µM) was 0.64%; the viability, T/C (second compound 0.1 µM, first compound 0.0949 µM) is 0.13%; the viability, T/C (second compound 0.1 µM, first compound 0.3 µM) was 0.25%. Moreover, the viability, T/C by setting is: (second compound 0.316 µM, first compound 0.000949 µM) 20.3%; (second compound 0.316 µM, first compound 0.003 µM) 12.4%; (second compound 0.316 µM, first compound 0.00949 µM) 3.03%; (second compound 0.316 µM, first compound 0.03 µM) 1.28%; (second compound 0.316 µM, first compound 0.0949 µM) 0.23%; (second compound 0.316 µM, first compound 0.3 µM) 0.24%. Also, the viability, T/C is, setting by setting: (second compound 1 µM, first compound 0.000949 µM) 20.2%; (second compound 1 µM, first compound 0.003 µM) 13.4%; (second compound 1 µM, first compound 0.00949 µM) 2.69%; (second compound 1 µM, first compound 0.03 µM) 0.95%; (second compound 1 µM, first compound 0.0949 µM) 1.3%; (second compound 1 µM, first compound 0.3 µM) 0.52%. For the same compound, the viability, T/C reads like this: (second compound 3.16 µM, first compound 0.000949 µM) 20.9%; (second compound 3.16 µM, first compound 0.003 µM) 10.9%; (second compound 3.16 µM, first compound 0.00949 µM) 2.33%; (second compound 3.16 µM, first compound 0.03 µM) 0.37%; (second compound 3.16 µM, first compound 0.0949 µM) 0.36%; (second compound 3.16 µM, first compound 0.3 µM) 0.53%. In addition, the viability, T/C runs as follows: (second compound 10 µM, first compound 0.000949 µM) 20.1%; (second compound 10 µM, first compound 0.003 µM) 10.3%; (second compound 10 µM, first compound 0.00949 µM) 2.5%; (second compound 10 µM, first compound 0.03 µM) 0.37%; (second compound 10 µM, first compound 0.0949 µM) 0.19%; (second compound 10 µM, first compound 0.3 µM) 0.32%.

Regarding `COc1cc(Nc2ncc3c(n2)-c2ccc(Cl)cc2C(c2c(F)cccc2OC)=NC3)ccc1C(=O)O`, the viability, T/C is 68.5% and 68.6% (compound 0.00316 µM); 67.9% and 49.6% (compound 0.01 µM); 78.5% and 43.2% (compound 0.0316 µM); 60.9% and 45.6% (compound 0.1 µM); 51.1% and 41.2% (compound 0.316 µM); 39.2% and 29.9% (compound 1 µM).

Turning to `O=C(C=Cn1cnc(-c2cc(C(F)(F)F)cc(C(F)(F)F)c2)n1)NNc1cnccn1`, the viability, T/C is, setting by setting: (compound 0.00316 µM) 84.8%; (compound 0.01 µM) 82.9% and 87.8%; (compound 0.0316 µM) 83.4% and 74%; (compound 0.1 µM) 68.8% and 37.2%; (compound 1 µM) 15.9% and 3.46%. Besides, under “curve of compound”, the IC50 is 329 nM and 67.6 nM.

Turning to `CC1COCCN1c1cc(-c2ccnn2C)c2ccnc(-c3ccn[nH]3)c2n1` (centres undefined) + NC1CCC(NC2CC2c2ccccc2)CC1, the IC50 amounted to 46.2 nM under setting [1]; 27 nM under setting [2]; 25 nM under setting [3]; 21.6 nM under setting [4]; 11.9 nM under setting [5]. Besides, the viability, T/C is 64.5% under setting [6]; 61.4% under setting [7]; 55% under setting [8]; 38.3% under setting [9]; 36.1% (second compound 0.1 µM, first compound 0.316 µM); 14.8% (second compound 0.1 µM, first compound 1 µM). Besides, the viability, T/C under setting [10] was 72.9%; the viability, T/C under setting [11] was 58.8%; the viability, T/C under setting [12] was 46.3%; the viability, T/C under setting [13] is 38.2%; the viability, T/C (second compound 0.316 µM, first compound 0.316 µM) was 29.8%; the viability, T/C (second compound 0.316 µM, first compound 1 µM) was 15.3%. Also, the viability, T/C reads like this: under setting [14], 61.1%; under setting [15], 59.7%; under setting [16], 45.6%; under setting [17], 36.8%; (second compound 1 µM, first compound 0.316 µM) 36.8%; (second compound 1 µM, first compound 1 µM) 17.9%. The viability, T/C runs as follows: under setting [18], 62.5%; under setting [19], 54.7%; under setting [20], 44.3%; under setting [21], 39.8%; (second compound 3.16 µM, first compound 0.316 µM) 35.8%; (second compound 3.16 µM, first compound 1 µM) 19.2%. In addition, the viability, T/C under setting [22] is 50%; the viability, T/C under setting [23] is 55.5%; the viability, T/C under setting [24] is 44.8%; the viability, T/C under setting [25] was 38%; the viability, T/C (second compound 10 µM, first compound 0.316 µM) is 30.5%; the viability, T/C (second compound 10 µM, first compound 1 µM) was 17.3%.

For the compound `CCc1c2c(nc3ccc(O)cc13)-c1cc3c(c(=O)n1C2)COC(=O)[C@]3(O)CC`, the viability, T/C runs as follows: (compound 0.000949 µM) 17.5% and 12%; (compound 0.003 µM) 11.2% and 9.45%; (compound 0.00949 µM) 2.19% and 1.59%; (compound 0.03 µM) 0.61% and 0.44%; (compound 0.0949 µM) 0.29% and 0.42%; (compound 0.3 µM) 0.34% and 0.39%. For the same compound, for the setting “curve of compound”, the IC50 was less than 0.949 nM.

Consider `Cn1ncnc1C1c2n[nH]c(=O)c3cc(F)cc(c23)NC1c1ccc(F)cc1` (centres undefined) + NC1CCC(NC2CC2c2ccccc2)CC1, for which the IC50 was more than 100 nM under setting [1]; more than 100 nM under setting [2]; more than 100 nM under setting [3]; more than 100 nM under setting [4]; more than 100 nM under setting [5]. Also, the viability, T/C runs as follows: (second compound 0.1 µM, first compound 0.000316 µM) 97%; (second compound 0.1 µM, first compound 0.001 µM) 105%; under setting [6], 92.3%; under setting [7], 91.2%; under setting [8], 94%; under setting [9], 85.4%. The viability, T/C was 100% (second compound 0.316 µM, first compound 0.000316 µM); 94.7% (second compound 0.316 µM, first compound 0.001 µM); 99.6% under setting [10]; 91.6% under setting [11]; 87.4% under setting [12]; 91.9% under setting [13]. Moreover, the viability, T/C is, setting by setting: (second compound 1 µM, first compound 0.000316 µM) 91%; (second compound 1 µM, first compound 0.001 µM) 92.2%; under setting [14], 94.1%; under setting [15], 101%; under setting [16], 80.6%; under setting [17], 92.1%. Further, the viability, T/C is, setting by setting: (second compound 3.16 µM, first compound 0.000316 µM) 87.1%; (second compound 3.16 µM, first compound 0.001 µM) 87.2%; under setting [18], 89.3%; under setting [19], 79.5%; under setting [20], 84.9%; under setting [21], 80.8%. Also, the viability, T/C (second compound 10 µM, first compound 0.000316 µM) is 73.9%; the viability, T/C (second compound 10 µM, first compound 0.001 µM) was 77.8%; the viability, T/C under setting [22] is 76.1%; the viability, T/C under setting [23] was 80.8%; the viability, T/C under setting [24] was 73.5%; the viability, T/C under setting [25] is 71.5%.
